In US20080138288A1, “COMBINATIONS FOR TREATMENT OF NEOVASCULATURE” (Washington University, priority 2006, published 2008):

System: aortic vasa vasorum neovasculature
Assay: MRI signal enhancement of aortic vasa vasorum neovasculature in cholesterol-fed rabbits (Example 1, FIG. 1)
Type: in vivo
Conditions: weeks 2 to 8; atorvastatin in high-cholesterol chow, 44 mg/kg feed
Method: Cholesterol-fed rabbits received αvβ3-targeted paramagnetic nanoparticles (NP) with (n=9) or without (n=9) fumagillin (30 μg/kg body weight) at weeks 0 and 4. A portion of the animals (n=4 per group) was treated with atorvastatin included in the high-cholesterol chow (44 mg/kg feed). Assessment of antiangiogenic response was evaluated at weeks 2, 4, 6 and 8 using αvβ3-targeted paramagnetic NP lacking the drug. MRI signal enhancement from the aortic vasa vasorum neovasculature was calculated from transverse black-blood MR images (1.5 T) collected before and 4 hours post NP injection (1 ml/kg body weight). The MRI enhancement observed at each timepoint was normalized with respect to the enhancement measured at week 0.

CC(C)c1c(C(=O)Nc2ccccc2)c(-c2ccccc2)c(-c2ccc(F)cc2)n1CC[C@@H](O)C[C@@H](O)CC(=O)O [atorvastatin]
MRI enhancement in the thoracic aorta, normalized to week 0, time course: slow decrease in enhancement
